Key:
[1] = target: CREB-binding protein (Homo sapiens, UniProt Q92793); assay: Inhibition of biotinylated-H4KAc4 binding to human His6-tagged CBP (R1081 to G1197 residues) expressed in Escherichia coli BL21(DE3) after 2.5 hrs by luminescence-based AlphaScreen assay
[2] = target: Bromodomain-containing protein 4 (Homo sapiens, UniProt O60885); assay: Inhibition of biotinylated-H4KAc4 binding to human His6-tagged BRD4 bromodomain-1 (N44 to E168 residues) expressed in Escherichia coli BL21(DE3) at 50 uM after 2.5 hrs by luminescence-based AlphaScreen assay relative to control
[3] = target: Bromodomain adjacent to zinc finger domain protein 2B (Homo sapiens, UniProt Q9UIF8); assay: Inhibition of biotinylated-H4KAc4 binding to human His6-tagged BAZ2B (S1858 to S1972 residues) expressed in Escherichia coli BL21(DE3) at 50 uM after 2.5 hrs by luminescence-based AlphaScreen assay relative to control
[4] = target: T1, ATPase family AAA domain-containing protein 2 (Homo sapiens) (UniProt Q6PL18); assay: Inhibition of biotinylated-H4KAc4 binding to human His6-tagged ATAD2 expressed in Escherichia coli BL21(DE3) at 50 uM after 2.5 hrs by luminescence-based AlphaScreen assay relative to control
T1 sequence (whole entry): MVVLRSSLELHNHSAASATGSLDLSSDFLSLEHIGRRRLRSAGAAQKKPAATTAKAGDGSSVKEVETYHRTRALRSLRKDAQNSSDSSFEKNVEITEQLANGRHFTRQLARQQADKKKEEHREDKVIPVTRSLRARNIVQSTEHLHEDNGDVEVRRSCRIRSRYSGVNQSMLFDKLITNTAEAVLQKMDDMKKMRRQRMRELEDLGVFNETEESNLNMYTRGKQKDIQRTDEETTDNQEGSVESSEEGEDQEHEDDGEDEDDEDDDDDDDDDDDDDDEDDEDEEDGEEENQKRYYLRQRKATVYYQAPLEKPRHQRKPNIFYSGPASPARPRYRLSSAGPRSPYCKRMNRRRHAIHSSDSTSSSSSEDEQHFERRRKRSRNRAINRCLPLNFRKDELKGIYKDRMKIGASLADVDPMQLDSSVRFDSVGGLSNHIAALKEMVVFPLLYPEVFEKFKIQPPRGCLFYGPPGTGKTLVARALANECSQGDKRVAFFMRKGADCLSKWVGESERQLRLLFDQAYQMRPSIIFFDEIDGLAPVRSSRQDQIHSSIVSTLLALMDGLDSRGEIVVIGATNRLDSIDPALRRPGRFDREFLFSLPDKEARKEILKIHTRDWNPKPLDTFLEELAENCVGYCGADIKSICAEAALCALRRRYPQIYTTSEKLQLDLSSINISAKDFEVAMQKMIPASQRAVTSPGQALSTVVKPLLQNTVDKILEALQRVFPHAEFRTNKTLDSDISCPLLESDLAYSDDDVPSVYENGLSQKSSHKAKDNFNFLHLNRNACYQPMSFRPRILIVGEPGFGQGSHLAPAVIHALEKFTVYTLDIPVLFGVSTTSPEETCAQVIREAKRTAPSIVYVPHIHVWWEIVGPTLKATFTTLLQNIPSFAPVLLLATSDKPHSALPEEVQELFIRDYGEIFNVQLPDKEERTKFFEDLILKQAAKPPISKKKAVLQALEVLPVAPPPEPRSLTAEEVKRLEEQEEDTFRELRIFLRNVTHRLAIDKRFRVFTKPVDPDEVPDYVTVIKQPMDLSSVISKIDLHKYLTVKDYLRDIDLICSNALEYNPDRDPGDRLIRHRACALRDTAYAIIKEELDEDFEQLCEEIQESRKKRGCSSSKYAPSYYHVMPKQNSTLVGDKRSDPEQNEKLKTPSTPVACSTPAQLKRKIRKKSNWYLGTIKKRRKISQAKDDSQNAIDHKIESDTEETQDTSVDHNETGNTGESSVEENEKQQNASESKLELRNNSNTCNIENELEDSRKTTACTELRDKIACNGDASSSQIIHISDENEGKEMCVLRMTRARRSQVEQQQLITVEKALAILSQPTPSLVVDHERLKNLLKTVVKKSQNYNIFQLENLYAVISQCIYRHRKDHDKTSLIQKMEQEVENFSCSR

[5] = system: LNCaP; assay: Antiproliferative activity against human LNCAP cells after 72 hrs by Cell-Titer Glo assay; assay type: functional, cell-based; details: Homo sapiens, LNCaP, 72 h; read-out: IC50

Sequence of CREB-binding protein (Q92793 whole entry, the tested form may be a part): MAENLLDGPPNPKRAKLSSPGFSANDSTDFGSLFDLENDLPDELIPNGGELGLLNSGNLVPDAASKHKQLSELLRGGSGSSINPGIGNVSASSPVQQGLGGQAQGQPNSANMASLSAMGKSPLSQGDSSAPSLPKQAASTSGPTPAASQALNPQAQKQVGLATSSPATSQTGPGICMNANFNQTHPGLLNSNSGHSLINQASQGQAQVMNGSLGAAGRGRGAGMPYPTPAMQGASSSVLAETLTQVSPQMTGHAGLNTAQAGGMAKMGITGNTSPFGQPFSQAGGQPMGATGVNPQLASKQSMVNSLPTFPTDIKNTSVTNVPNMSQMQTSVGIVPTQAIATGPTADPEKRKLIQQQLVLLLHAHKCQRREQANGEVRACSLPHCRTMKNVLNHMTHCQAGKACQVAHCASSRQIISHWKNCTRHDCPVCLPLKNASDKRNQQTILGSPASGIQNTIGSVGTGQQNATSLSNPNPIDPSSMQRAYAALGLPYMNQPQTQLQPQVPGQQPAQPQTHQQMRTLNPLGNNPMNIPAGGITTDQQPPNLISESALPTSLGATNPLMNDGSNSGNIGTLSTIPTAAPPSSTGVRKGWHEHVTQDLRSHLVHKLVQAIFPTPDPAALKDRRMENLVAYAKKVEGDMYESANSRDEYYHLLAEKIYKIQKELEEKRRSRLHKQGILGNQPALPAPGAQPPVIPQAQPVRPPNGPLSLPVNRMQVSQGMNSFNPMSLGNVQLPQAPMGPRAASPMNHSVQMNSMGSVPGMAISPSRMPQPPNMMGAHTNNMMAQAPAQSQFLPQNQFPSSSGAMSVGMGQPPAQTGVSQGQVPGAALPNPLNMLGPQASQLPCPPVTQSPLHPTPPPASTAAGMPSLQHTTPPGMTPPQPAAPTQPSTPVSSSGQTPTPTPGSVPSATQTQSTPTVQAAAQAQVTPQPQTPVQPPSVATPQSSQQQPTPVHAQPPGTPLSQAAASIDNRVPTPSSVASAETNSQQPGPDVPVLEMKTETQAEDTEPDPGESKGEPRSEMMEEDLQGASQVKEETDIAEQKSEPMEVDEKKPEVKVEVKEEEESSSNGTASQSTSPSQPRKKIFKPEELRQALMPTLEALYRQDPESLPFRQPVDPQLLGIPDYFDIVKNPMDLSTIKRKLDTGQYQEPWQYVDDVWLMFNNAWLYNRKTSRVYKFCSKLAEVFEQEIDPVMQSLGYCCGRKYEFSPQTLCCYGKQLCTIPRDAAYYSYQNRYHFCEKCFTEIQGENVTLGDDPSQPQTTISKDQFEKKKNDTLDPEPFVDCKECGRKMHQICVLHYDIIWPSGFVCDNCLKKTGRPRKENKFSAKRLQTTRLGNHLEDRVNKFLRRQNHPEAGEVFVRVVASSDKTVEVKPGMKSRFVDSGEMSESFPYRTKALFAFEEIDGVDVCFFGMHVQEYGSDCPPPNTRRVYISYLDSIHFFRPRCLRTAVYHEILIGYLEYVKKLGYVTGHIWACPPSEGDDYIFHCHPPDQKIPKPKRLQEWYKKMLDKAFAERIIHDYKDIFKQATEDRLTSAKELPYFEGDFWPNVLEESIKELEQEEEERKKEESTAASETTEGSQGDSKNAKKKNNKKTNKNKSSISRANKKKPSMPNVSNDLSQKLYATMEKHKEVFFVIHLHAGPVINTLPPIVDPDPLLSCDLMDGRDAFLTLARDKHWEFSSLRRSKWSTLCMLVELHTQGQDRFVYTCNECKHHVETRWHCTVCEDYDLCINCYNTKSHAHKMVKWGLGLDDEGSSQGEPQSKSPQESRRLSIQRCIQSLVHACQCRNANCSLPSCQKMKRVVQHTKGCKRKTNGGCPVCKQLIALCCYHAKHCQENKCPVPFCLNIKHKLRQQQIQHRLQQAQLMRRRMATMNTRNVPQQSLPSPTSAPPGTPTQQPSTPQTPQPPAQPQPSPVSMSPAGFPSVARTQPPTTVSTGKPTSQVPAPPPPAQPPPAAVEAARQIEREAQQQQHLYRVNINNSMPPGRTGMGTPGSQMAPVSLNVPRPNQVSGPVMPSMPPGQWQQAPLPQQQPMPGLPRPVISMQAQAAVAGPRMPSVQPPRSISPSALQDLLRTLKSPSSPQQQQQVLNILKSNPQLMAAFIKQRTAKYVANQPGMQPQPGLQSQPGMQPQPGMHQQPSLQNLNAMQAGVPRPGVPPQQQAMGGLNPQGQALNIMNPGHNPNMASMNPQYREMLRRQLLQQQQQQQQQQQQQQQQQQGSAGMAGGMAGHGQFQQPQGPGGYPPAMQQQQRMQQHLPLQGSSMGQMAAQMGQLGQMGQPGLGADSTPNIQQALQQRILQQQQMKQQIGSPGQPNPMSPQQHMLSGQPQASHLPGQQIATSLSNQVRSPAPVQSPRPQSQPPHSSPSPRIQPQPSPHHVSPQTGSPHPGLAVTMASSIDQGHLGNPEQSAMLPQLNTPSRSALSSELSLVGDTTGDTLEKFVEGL
Sequence of Bromodomain adjacent to zinc finger domain protein 2B (Q9UIF8 whole entry, the tested form may be a part): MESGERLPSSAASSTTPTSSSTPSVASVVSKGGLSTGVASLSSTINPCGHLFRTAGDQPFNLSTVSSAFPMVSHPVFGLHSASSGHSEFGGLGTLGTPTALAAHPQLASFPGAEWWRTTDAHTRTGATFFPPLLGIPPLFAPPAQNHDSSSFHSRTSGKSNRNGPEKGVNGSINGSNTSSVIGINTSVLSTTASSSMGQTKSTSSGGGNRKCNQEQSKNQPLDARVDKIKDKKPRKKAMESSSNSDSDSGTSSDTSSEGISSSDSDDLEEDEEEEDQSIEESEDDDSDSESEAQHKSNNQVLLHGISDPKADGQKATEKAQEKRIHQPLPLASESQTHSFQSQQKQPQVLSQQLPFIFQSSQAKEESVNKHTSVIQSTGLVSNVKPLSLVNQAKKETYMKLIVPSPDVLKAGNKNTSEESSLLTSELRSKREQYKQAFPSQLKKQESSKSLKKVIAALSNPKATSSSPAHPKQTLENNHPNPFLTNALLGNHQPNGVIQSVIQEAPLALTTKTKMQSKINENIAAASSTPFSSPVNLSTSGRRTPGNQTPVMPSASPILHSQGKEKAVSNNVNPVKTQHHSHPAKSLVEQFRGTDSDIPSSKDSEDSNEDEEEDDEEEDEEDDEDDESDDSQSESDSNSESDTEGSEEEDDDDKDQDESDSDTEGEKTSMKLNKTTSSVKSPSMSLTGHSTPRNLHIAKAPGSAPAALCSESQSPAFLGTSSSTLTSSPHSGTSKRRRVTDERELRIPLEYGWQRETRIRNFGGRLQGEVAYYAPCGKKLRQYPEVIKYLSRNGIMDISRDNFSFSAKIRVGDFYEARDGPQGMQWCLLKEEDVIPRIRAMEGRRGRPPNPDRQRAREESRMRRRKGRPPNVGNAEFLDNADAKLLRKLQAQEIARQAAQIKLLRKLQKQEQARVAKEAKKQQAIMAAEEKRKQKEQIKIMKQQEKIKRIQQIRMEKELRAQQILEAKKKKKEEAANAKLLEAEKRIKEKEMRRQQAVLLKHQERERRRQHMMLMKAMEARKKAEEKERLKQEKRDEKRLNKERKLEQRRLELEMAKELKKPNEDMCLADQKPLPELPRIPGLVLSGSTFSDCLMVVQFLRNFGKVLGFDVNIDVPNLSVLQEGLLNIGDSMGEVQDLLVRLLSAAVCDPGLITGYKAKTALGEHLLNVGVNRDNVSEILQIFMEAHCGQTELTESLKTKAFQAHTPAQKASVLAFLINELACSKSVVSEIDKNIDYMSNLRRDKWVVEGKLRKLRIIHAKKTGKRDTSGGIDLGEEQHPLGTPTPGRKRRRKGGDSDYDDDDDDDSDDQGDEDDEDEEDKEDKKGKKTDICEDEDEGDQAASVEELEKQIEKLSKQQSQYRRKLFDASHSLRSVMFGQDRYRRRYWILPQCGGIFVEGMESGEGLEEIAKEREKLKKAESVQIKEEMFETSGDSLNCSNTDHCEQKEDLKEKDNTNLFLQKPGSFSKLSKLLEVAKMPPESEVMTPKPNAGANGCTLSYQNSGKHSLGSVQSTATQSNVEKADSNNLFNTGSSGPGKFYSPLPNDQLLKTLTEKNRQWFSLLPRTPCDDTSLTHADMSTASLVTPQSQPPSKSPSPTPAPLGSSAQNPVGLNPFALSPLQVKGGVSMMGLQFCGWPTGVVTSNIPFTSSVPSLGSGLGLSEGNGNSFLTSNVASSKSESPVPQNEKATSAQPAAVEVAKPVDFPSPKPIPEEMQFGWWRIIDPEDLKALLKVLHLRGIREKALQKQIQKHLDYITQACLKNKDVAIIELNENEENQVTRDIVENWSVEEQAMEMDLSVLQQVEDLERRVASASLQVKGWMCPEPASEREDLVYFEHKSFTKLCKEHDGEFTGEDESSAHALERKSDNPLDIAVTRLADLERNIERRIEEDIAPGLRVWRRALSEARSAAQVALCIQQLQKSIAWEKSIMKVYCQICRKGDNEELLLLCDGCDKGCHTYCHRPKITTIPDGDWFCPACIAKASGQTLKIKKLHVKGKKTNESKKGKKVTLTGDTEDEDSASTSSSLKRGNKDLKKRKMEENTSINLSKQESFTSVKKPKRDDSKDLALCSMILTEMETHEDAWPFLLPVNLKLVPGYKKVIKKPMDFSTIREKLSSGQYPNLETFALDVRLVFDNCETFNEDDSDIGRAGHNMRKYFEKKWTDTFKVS

Row | Compound | IC50 [1] | also measured
1 | CCOc1ccc2c(c1)c(C(=O)Nc1cc(C(=O)O)cc(-c3ccco3)c1)cn2C(C)=O | 3.89 µM | –
2 | CC(=O)n1cc(C(=O)Nc2cc(C(=O)O)ccc2NCc2ccccc2)c2ccccc21 | 4.11 µM | –
3 | CC(=O)c1cn(CC(=O)N2CCC[C@H](C(=O)O)C2)c2ccccc12 | 6.8 µM | –
4 | Nc1c(Nc2ccccc2)c2ccccc2oc1=O | > 50 µM | inhibition [2]: 8%; inhibition [3]: 32%; inhibition [4]: 32%
5 | CC(=O)n1cc(C(=O)Nc2cc(C(=O)O)cc(-c3cccc(Cl)c3)c2)c2ccccc21 | 1.44 µM | –
6 | COc1ccc2c(c1)c(C(=O)Nc1cc(C(=O)O)cc(-c3ccc4c(cnn4C)c3)c1)cn2C(C)=O | 0.29 µM | –
7 | CC(=O)n1ncc2c([N+](=O)[O-])cc([N+](=O)[O-])cc21 | 9.11 µM | inhibition [2]: 98%; inhibition [3]: 97%; inhibition [4]: 98%
8 | CC(=O)c1nn(-c2ccccc2)cc1C(=O)c1ccccc1 | > 50 µM | inhibition [2]: 27%; inhibition [3]: 21%; inhibition [4]: 35%
9 | CC(=O)n1cc(C(=O)Nc2cc(C(=O)O)cc(C3CCCCC3)c2)c2ccccc21 | 2.48 µM | –
10 | CC(=O)Nc1ccc2c(c1)c1ccccc1n2C(C)=O | > 50 µM | inhibition [2]: -3%; inhibition [3]: 10%; inhibition [4]: 4%
11 | CC(=O)n1cc(C(=O)Nc2cc(C(=O)O)ccc2NC2CCOCC2)c2ccccc21 | 8.5 µM | –
12 | CC(=O)c1cn(CC(=O)N2CCC(C(=O)O)CC2)c2ccccc12 | 13.6 µM | –
13 | CC(=O)n1cc(C(=O)Nc2cc(C(=O)O)cc(-c3ccco3)c2)c2cc(O)ccc21 | 0.17 µM | –
14 | CC(=O)n1cc(C(=O)Nc2cc(C(=O)O)cc(-c3ccc4c(cnn4C)c3)c2)c2ccccc21 | 1 µM | –
15 | CC(=O)n1cc(C(=O)Nc2cc(C(=O)O)cc(-c3ccccc3)c2)c2ccccc21 | 1.86 µM | –
16 | CC(=O)n1cc(C(=O)Nc2cc(C(=O)O)cc(-c3cc4ccccc4o3)c2)c2ccccc21 | 2.81 µM | –
17 | COc1cccc(-c2cc(NC(=O)c3cn(C(C)=O)c4ccccc34)cc(C(=O)O)c2)c1 | 2.07 µM | –

Row | Compound | IC50 [1] | also measured
18 | O=C1N=CC(c2cccc([N+](=O)[O-])c2)c2ccccc21 (configuration not stated) | > 50 µM | inhibition [2]: 23%; inhibition [3]: 59%; inhibition [4]: 87%
19 | COc1ccc2c(c1)c(C(=O)Nc1cc(C(=O)O)cc(-c3ccc4c(c3)OCCO4)c1)cn2C(C)=O | 0.69 µM | –
20 | CC(=O)n1cc(C(=O)Nc2cc(C(=O)O)cc(-c3cccc(C(F)(F)F)c3)c2)c2ccccc21 | 4.05 µM | –
21 | COC(=O)C1CCN(C(=O)Cn2cc(C(C)=O)c3ccccc32)CC1 | 19.8 µM | –
22 | Nc1c(N2CCCC2)c2ccccc2oc1=O | > 50 µM | inhibition [2]: 47%; inhibition [3]: 69%; inhibition [4]: 52%
23 | Cn1nc(-c2ccc(Cl)cc2)c2ccccc2c1=O | > 50 µM | inhibition [2]: 57%; inhibition [3]: 34%; inhibition [4]: 49%
24 | CC(=O)n1cc(C(=O)Nc2cc(C(=O)O)ccc2NCC2CCOCC2)c2ccccc21 | 6.36 µM | –
25 | CC(=O)c1nn(-c2ccccc2)c(C)c1C(C)=O | > 50 µM | inhibition [2]: 5%; inhibition [3]: 6%; inhibition [4]: 19%
26 | CC(=O)n1cc(C(=O)Nc2cc(C(=O)O)ccc2NC2CCCCCC2)c2ccccc21 | 1.67 µM | –
27 | CC(=O)c1coc2c1cc(O)c1ccccc12 | 41.4 µM | inhibition [2]: 51%; inhibition [3]: 36%; inhibition [4]: 55%
28 | CC(=O)n1c(C#N)nc2ccccc21 | > 50 µM | inhibition [2]: 20%; inhibition [3]: 24%; inhibition [4]: 29%
29 | CCCOc1ccc2c(c1)c(C(=O)Nc1cc(C(=O)O)cc(-c3ccco3)c1)cn2C(C)=O | 26.2 µM | –
30 | CC(=O)c1nn(-c2ccccc2)c2c1CCCC2 | > 50 µM | inhibition [2]: -2%; inhibition [4]: 6%
31 | CC(=O)n1cc(C(=O)Nc2cc(C(=O)O)cc(-c3cccc(F)c3)c2)c2ccccc21 | 3.52 µM | –
32 | COC(=O)[C@H]1CCCN(C(=O)Cn2cc(C(C)=O)c3ccccc32)C1 | 7.09 µM | –
33 | CNC(=O)c1ccc(N2C(=S)N(c3ccc(C#N)c(C(F)(F)F)c3)C(=O)C2(C)C)cc1F [ENZALUTAMIDE] | – | IC50 [5]: 33.8 µM

More lines, main results first:

Row | IC50 [1] | Compound | also measured
34 | 4.84 µM | CC(=O)n1cc(C(=O)Nc2cc(C(=O)O)ccc2NC2CC2)c2ccccc21 | –
35 | > 50 µM | CCCCNc1ccc(C(=O)O)cc1NC(=O)c1cn(C(C)=O)c2ccccc12 | –
36 | 3.39 µM | COC(=O)c1cccc(NC(=O)c2cn(C(C)=O)c3ccccc23)c1 | –
37 | 2.99 µM | CC(=O)n1cc(C(=O)Nc2cc(C(=O)O)cc(C3CCCC3)c2)c2ccccc21 | –
38 | 25.4 µM | CC(=O)c1cccc(NC(=O)c2cn(C(C)=O)c3ccccc23)c1 | –
39 | 2.33 µM | CC(=O)n1cc(C(=O)Nc2cc(C(=O)O)ccc2NCC(C)C)c2ccccc21 | –
40 | 3.39 µM | CC(=O)n1cc(C(=O)Nc2cc(CC(C)C)cc(C(=O)O)c2)c2ccccc21 | –
41 | 33.8 µM | CC(=O)NCCNC(=O)c1cn(C(C)=O)c2ccccc12 | –
42 | 1.89 µM | CC(=O)n1cc(C(=O)Nc2cc(C(=O)O)ccc2NC2CCCC2)c2ccccc21 | –
43 | > 50 µM | CC(=O)OCc1cn(C(C)=O)c2ccccc12 | inhibition [2]: 17%; inhibition [3]: 10%; inhibition [4]: 32%
44 | 2.8 µM | CCc1cc(NC(=O)c2cn(C(C)=O)c3ccccc23)cc(C(=O)O)c1 | –
45 | 2.33 µM | CC(=O)n1cc(C(=O)Nc2cc(C(=O)O)ccc2NCC2CCCCC2)c2ccccc21 | –
46 | 1.69 µM | CC(=O)n1cc(C(=O)Nc2cc(C(=O)O)cc(-c3cncc(C)c3)c2)c2ccccc21 | –
47 | 4.7 µM | CC(=O)n1cc(C(=O)Nc2cc(Br)cc(C(=O)O)c2)c2ccccc21 | –
48 | 16.7 µM | CC(=O)c1cn(CCC(=O)O)c2ccccc12 | inhibition [2]: 34%; inhibition [3]: 21%; inhibition [4]: 39%
49 | 2.74 µM | CC(=O)n1cc(C(=O)Nc2cc(C(=O)O)cc(C3CC3)c2)c2ccccc21 | –
50 | 21.6 µM | CC(=O)n1cc(C(=O)Nc2cc(C(=O)O)ccc2NCC2CC2)c2ccccc21 | –
51 | 1.96 µM | CC(=O)n1cc(C(=O)Nc2cc(CCc3ccccc3)cc(C(=O)O)c2)c2ccccc21 | –
52 | 32.6 µM | CC(=O)n1cc(C(=O)NCCN2CCNC2=O)c2ccccc21 | –
53 | 6.56 µM | CCCNc1ccc(C(=O)O)cc1NC(=O)c1cn(C(C)=O)c2ccccc12 | –
54 | 39.6 µM | CCOC(=O)CCn1cc(C(C)=O)c2ccccc21 | –
